The subject of the assay is fecal microbiota. Description: Fecal microbiota analysis (16S rRNA), alpha and beta diversity. Type of assay: in vivo, human. As for the experimental part:
To determine significant differences between bacterial alpha diversity metrics (the measure of microbiome diversity within a single sample), a paired t-test was used between alpha diversity values of different sample groups (p<0.05). Significant differences in beta diversity (the measure of similarity or dissimilarity of multiple samples) between groups was determined using the qiime diversity beta-group-significance command in QIIME2 as well, which performs pairwise Permutational Multivariate Analysis of Variance (PERMANOVA) tests on beta diversity distance matrices (p<0.05). Differential abundance of taxa between sample groups were evaluated using Multivariate Analysis by Linear Models (MaAsLin) in R version 4.0.2 using the Maaslin2 command in the Maaslin2 R library on rarified taxonomy data generated by QIIME2 (p<0.05). Additional evaluation of differential abundance of taxa was performed using Analysis of Composition of Microbiomes (ANCOM) using the qiime composition ancom command after collapsing the feature table to the family level (level 5) using the qiime taxa collapse command on QIIME2. Data visualization was performed using the ggplot2 package, with data frame manipulation commands from the dplyr package, within the tidyverse collection of R packages.
Stool specimens were collected at four time points throughout the entire study protocol. The first two samples were collected before and after the first supplementation period while the final two samples were collected before and after the second supplementation period. All stool specimens were collected no more than 24-hours prior to that study participant being scheduled to complete their laboratory visit. All samples were immediately frozen after sample collection by the study participants. […]
A fecal microbiota analysis was further conducted. […] The Qubit Fluorometer (Thermo Fisher Scientific, San Francisco, Calif.) was used to quantify PCR product concentrations prior to combining the PCR products in equal quantities for purification with the Wizard SV Gel and PCR Cleanup kit (Promega, Madison, Wis.). […]

Data on one compound can be found in patent US20220395522A1, “Methods of Use of Glucosamine for Increasing Nitrogen Retention” (TSI Bioproducts (Xuzhou) Co., Ltd., priority 2021, published 2022).

Each structure is given as a SMILES string.

Consider `Cl.N[C@H]1C(O)O[C@H](CO)[C@@H](O)[C@@H]1O` (stereo partly drawn) [GLU, glucosamine hydrochloride], for which, under “Post vs Pre, paired t-test p>0.05”, the “Other alpha diversity measures (Observed OTUs or Shannon Evenness)” value was “not significantly altered”. Besides, the “Changes in beta-diversity (unweighted Unifrac distances)” value (compared to baseline, PERMANOVA p>0.05) is on record as “not significantly different”. Where the note is “following GLU consumption compared to baseline, paired t-test p=4.59E-03”, the “Alpha diversity of fecal bacterial communities, Faith's Phylogenetic Diversity (PD)” value is listed as “significantly decreased”.
